For series [1], the target named is T1, Rice recombinant CYP701A6 (ent-kaurene oxidase) (Oryza sativa subsp. japonica, UniProt Q5Z5R4).
T1 construct: made in house; host or cells: insect cells (baculovirus vector)
T1 sequence (Q5Z5R4 1-505): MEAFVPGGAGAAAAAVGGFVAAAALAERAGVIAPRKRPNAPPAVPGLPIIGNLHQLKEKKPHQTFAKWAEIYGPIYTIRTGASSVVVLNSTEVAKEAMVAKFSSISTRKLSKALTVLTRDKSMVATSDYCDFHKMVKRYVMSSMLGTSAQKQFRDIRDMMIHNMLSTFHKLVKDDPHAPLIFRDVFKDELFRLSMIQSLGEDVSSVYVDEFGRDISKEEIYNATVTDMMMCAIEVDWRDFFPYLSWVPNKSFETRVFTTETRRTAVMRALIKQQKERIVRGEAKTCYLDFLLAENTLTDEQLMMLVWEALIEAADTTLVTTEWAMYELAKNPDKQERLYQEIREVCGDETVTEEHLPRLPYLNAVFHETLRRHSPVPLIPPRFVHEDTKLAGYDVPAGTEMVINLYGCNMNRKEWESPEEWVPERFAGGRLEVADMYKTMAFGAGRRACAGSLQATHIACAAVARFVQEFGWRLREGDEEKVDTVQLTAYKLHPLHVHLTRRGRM
The series can be described thus: CYP701A6 inhibition assay (formation of end product KA). The class given is biochemical. The protocol:
To evaluate the enzymatic selectivity between CYP707A and CYP701A, we examined the inhibitory activity against recombinant rice containing CYP701A6 expressed in insect cells using a baculovirus vector. This enzyme catalyses all three steps to KA via the corresponding alcohol and aldehyde, and consequently, the kinetic analysis is very complicated. Therefore, we evaluate the IC50 value for the formation of the end product, KA, instead of the KI value.
Reaction mixtures, containing 0.058 μM of […] microsomes, ATR2 (0.115 U), ent-kaurene (final concentration of 10 μM), inhibitors (0 for control, 1.5–1,500 μM in 8 μL dimethylformamide), and 20 mM NADPH in 500 mM potassium phosphate buffer (pH 7.4), were incubated at 30 °C for 10 min. Reactions were initiated by adding NADPH and stopped by the addition of 100 μL of 1 M HCl. Abietic acid, as the internal standard, was then added to the reaction product, which was extracted with EtOAc (400 μL × 3). The organic phase was dried over Na2SO4 and concentrated in vacuo. To derivatize the reaction products, MeOH (50 μL) and trimethylsilyldiazomethane (2 M in 5 μL hexane) were added, and the reaction mixture was incubated at room temperature for 10 min. The organic solvent was removed under N2, and samples were adjusted to 150 μL with hexane before a gas chromatography-mass spectrometry analysis (QP2010-plus; Shimadzu Corp., Kyoto, Japan). The conditions were as follows: the column was DB-5ms (0.25 mm id × 15 m, 0.25 μm film thickness; Agilent J & W, Folsom, CA, USA), the carrier gas was He, the flow rate was 1.65 mL min^−1, the injection port temperature was 280 °C, splitless injection, and the programmed column temperature was a step gradient of 80 °C for 1 min, 80–200 °C at 18 °C min^−1, 200–210 °C at 2 °C min^−1, 210–280 °C at 30 °C min^−1, and then 280 °C for 3 min. The KA content was calculated from the area ratio of molecular and fragment ions of methyl KA (m/z 316, 273, and 257) to those of methyl abietate (m/z 316 and 256). The inhibition ratio was defined as [(A − B)/A] × 100, where A = the amount of methyl KA/methyl abietate when the inhibitor was absent from the reaction mixture (control), and B = the amount of methyl KA/methyl abietate when the inhibitor was present. All of the tests were conducted at least three times.

Series [2] concerns the target T2, Arabidopsis recombinant CYP707A3 (ABA 8′-hydroxylase) (Arabidopsis thaliana, UniProt Q9FH76).
T2 construct: made in house; host or cells: Escherichia coli (microsomal/membrane fraction)
T2 sequence (Q9FH76 1-463): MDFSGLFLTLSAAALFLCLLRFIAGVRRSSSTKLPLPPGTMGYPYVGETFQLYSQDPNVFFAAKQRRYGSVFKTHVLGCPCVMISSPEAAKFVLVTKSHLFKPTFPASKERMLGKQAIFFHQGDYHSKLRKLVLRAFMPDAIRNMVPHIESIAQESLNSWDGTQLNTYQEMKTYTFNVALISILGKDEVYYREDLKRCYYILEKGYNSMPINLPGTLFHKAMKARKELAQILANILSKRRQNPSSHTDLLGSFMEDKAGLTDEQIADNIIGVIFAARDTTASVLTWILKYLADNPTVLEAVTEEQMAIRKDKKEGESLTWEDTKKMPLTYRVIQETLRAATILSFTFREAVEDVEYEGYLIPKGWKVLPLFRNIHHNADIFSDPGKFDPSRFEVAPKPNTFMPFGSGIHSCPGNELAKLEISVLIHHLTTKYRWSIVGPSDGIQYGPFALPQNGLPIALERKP
The series can be described thus: CYP707A3 inhibition assay (decrease of enzymatic product PA). In kind it is biochemical. The following applies: Arabidopsis recombinant CYP707A3 expressed in E. coli; for IC50: 5 μM ABA as substrate, read-out: CYP707A IC50. As for the experimental part: The inhibitory activities of Abz-T compounds against ABA 8′-hydroxylase were examined using recombinant Arabidopsis CYP707A3 co-expressed with Arabidopsis P-450 reductase (ATR1) in Escherichia coli[22]. The activity levels were evaluated based on the decrease in the amount of the enzymatic product, PA.
Reactions were initiated by adding NADPH, stopped by the addition of 25 μL of 1 M NaOH and then acidified with 50 μL of 1 M HCl. Reaction products were extracted by loading the mixture onto an Oasis HLB cartridge (1 mL, 30 mg; Waters Corp., Milford, MA, USA) and were washed with 1 mL of 10% MeOH in H2O (v/v) containing 1% acetic acid (AcOH, v/v). The enzyme products were then eluted with 1 mL of MeOH containing 1% AcOH, and the eluate was concentrated in vacuo. Each dried sample was then dissolved in 50 μL of MeOH, and a 20-μL volume was subjected to HPLC (Prominence; Shimadzu Corp., Kyoto, Japan). HPLC conditions were as follows: the octadecylsilyl column was composed of Hydrosphere C18 (150 × 6.0 mm, YMC Co., Ltd., Kyoto, Japan), and the solvent comprised 17% acetonitrile (MeCN) in H2O containing 0.05% AcOH (v/v). The flow rate was 1.0 mL min^−1, and detection was at 254 nm. Enzyme activity was evaluated by determining the amount of PA in control experiments prior to taking each set of measurements. The inhibition constants were determined using the Enzyme Kinetics module of the SigmaPlot 10 software (Systat Software, Inc., San Jose, CA, USA) after determining the inhibition mode by plotting the reaction velocity in the presence and absence of the inhibitor on a double-reciprocal plot. The inhibition ratio was defined as [(A − B)/A] × 100, where A = the amount of PA when the inhibitor was absent from the reaction mixture (control), and B = the amount of PA when the inhibitor was present. All of the tests were conducted at least three times.

The test system of series [3] is ABA-responsive genes MAPKKK18, RD29A and RD29B. The series can be described thus: qRT-PCR of ABA-responsive genes in Arabidopsis seedlings. In kind it is in vivo, Arabidopsis (Columbia accession). The following applies: 10-day-old seedlings, 6 h. The protocol: Figure 5 Effects of (−)-Abz-E3M on the expression levels of Arabidopsis ABA-responsive genes. Expression of MAPKKK18, RD29A and RD29B after treatment with (−)-Abz-E2B or (−)-Abz-E3M in the absence or presence of 0.25 μM ABA (n = 4, error bar represents s.d.).
Arabidopsis (Columbia accession) were grown for 10 d on agar plates containing 1/2 Murashige and Skoog (MS) and 0.5% sucrose at 22 °C under an 18/6-h light/dark cycle. Seedlings were incubated in the chemical solutions for 6 h. Total RNA from seedlings was isolated using the Plant RNA purification reagent (Thermo Fisher Scientific) according to the manufacturer’s instructions. cDNA was synthesised using the QuantiTec reverse transcription kit (Qiagen). Maize (cv. Gold rush, Sakata Seed Corporation) seedlings were grown in 100-mL pots containing 75 g of moist soil in a glass house. The root parts of the maize seedlings were washed with tap water and dipped in 100 μM (−)-Abz-E3M chemical solution containing 0.05% Tween-20 overnight. Total RNA from maize seedlings was isolated using an RNeasy mini kit (Qiagen) with the ‘on-column’ DNA digestion method. cDNA was synthesised using a High-Capacity cDNA Reverse Transcription Kit (Thermo Fisher Scientific). Real-time PCR using SYBR Premix Ex Taq™ II (Takara) was performed with Step One-Plus (Thermo Fisher Scientific). The primer sets are shown in Supplemental Table S1.

Series [4] has as its system rice seedling growth. The series can be described thus: Rice seedling elongation assay. The class given is in vivo, Oryza sativa L. cv. Nipponbare. The following applies: 0.3 μM; 7 d. As for the experimental part:
The effects of (−)-Abz-T compounds were also tested on the early growth of rice seedlings to investigate whether the plant growth-retardant effect derived from UNI declined. […] This was the same trend observed for (−)-Abz-E2B[26]. […] Thus, the growth-retardant effects of (−)-Abz-T compounds may arise from an increase in the endogenous ABA level due to the CYP707A inhibition, although we cannot exclude the possibility that Abz-T compounds may inhibit off-target enzymes other than CYP707A and CYP701A.
Figure 4 Effects of (−)-Abz-T compounds on rice seedling growth compared with the effects of UNI and (−)-Abz-E2B. Seedlings grown on test media containing indicated concentrations of azole inhibitors for 7 d. Scale bars represent 10 mm. Compound 6 is also referred to as Abz-E3M.
For the rice seedling elongation assay, seven seeds (Oryza sativa L. cv. Nipponbare) were sterilised with reagent-grade EtOH for 5 min and washed with running tap water. They were then soaked in distilled water and incubated under continuous illumination at 25 °C for 3 d to germinate. The germinated seeds were then soaked in 2 mL of a test medium in a glass tube and grown under continuous illumination at 25 °C. When the seedlings were 7 d old, the length of the second leaf sheath was measured. All of the assays were conducted at least three times.

Setting [5] is: Rice recombinant CYP701A6 expressed in insect cells, 10 μM ent-kaurene, formation of KA, read-out: CYP701A IC50.

Like-named read-outs stand apart in the source and are kept apart here.

In the case of abscinazole-E3M [(+)-6], the IC50 was determined as 1600 nM in series [1] (setting [5]) and 1200 nM in series [2].

In the case of “abscinazole-E2B [(−)-Abz-E2B, reference compound]”, the concentration for half-maximal inhibition (IC50) came to 1200 nM in series [1] (setting [5]) and 54 nM in series [2]. Besides, the “Expression of ABA-responsive genes MAPKKK18, RD29A and RD29B” value was “did not induce the expression” in series [3] (absence of exogenous ABA) and “enhanced the expression levels of ABA-responsive genes” in series [3] (co-treatment with 0.25 μM ABA). Besides, the inhibition constant Ki in series [2] (ABA 1–64 μM, read-out: CYP707A KI) is 38 nM.

Consider `CC(C)(C)[C@H](O)/C(=C\c1ccc(Cl)cc1)n1cncn1` [UNI, S-uniconazole, reference compound], for which, in series [1], the IC50 came out at 57 nM. Moreover, in series [4], the “Effect on elongation of rice seedlings” value is recorded as “strongly inhibited the elongation of rice seedlings”.

Take “abscinazole-E2B [(+)-Abz-E2B, reference compound]”: the 50% inhibitory concentration (IC50) was found to be 1300 nM in series [1] (setting [5]) and 1100 nM in series [2].

As a reminder, the IC50 is the concentration at which inhibition is half-maximal. As usually defined, the Ki is the equilibrium dissociation constant of an inhibitor or competing ligand from its target.

These data come from article PMC5107945, “Abscinazole-E3M, a practical inhibitor of abscisic acid 8′-hydroxylase for improving drought tolerance” (Scientific Reports, 2016).
